Reference: patent US6890948B1 (Cancer Research Technology Limited, priority 2000, dated 2005)
Where two headings read alike, the source gives them in different places. Marks after values point to notes of the source that are not given here.

What was measured:
[1] = system: Hamster lung fibroblast V79 cells; assay: Cytotoxic effects of compounds of formula (I) with horseradish peroxidase (HRP), clonogenic cell survival; format: cell-based; details: 2 hours treatment, mean ± standard error of three experiments unless n given
Protocol: Hamster lung fibroblast V79 cells were obtained from the European Tissue Culture Collection. Cells were grown over the weekend in […] tissue culture flats as attached cells in Eagle's Modified Essential Medium (EMEM) supplemented with 10% foetal calf serum, 2 mM L-glutamine, 100 U/mL penicillin and 100 μg/mL streptomycin, and incubated in a humidified incubator at 37° C., in 5% CO2/air. […] The trypsin was deactivated by the addition of 10 mL spinner modified EMEM (supplemented with 7.5% foetal calf serum) and the cells allowed to grow in a spinning culture, pre-gassed with 5% CO2/air, maintaining the cells in logarithmic growth.
Cells were prepared for toxicity measurements by counting and plating 200, 2000 or 20,000 cells/6 cm Petri dish in 3 mL EMEM in triplicate for each sample. The cells were allowed to attach for at least 1 hour, then the medium removed and 2 mL phenol red free Hanks' balanced salt solution added, either alone (control) or with 50 or 100 μM of the compound of formula (I) to be tested. HRP (50 μL of 0.048 mg/mL) was added to the test dishes requiring it and the cells left in the incubator for 0, 0.5, 1, 1.5 or 2 hours. After the incubation time the drug was removed, the cells washed with 2 mL Hanks and then 4 mL EMEM added. The cells were allowed to grow for 7 days to colonies of >50 cells. After 7 days the medium was removed and the cells fixed with 75% methanol for 5 minutes. The methanol was then removed and the cells stained with 1% w/v crystal violet for 5 minutes. The cells were washed and colonies counted. Cell survival was determined by calculating the ratio of colonies growing compared to untreated control cells.
In table 1, values are the surviving fraction after 2 hours treatment with the IAA derivatives at the concentrations shown together with HRP (1.2 μg/mL). Unless otherwise indicated (by n=number of individual experiments), the means±the standard errors of three experiments are given.

[2] = system: Human bladder carcinoma T24 cells; assay: GDEPT: clonogenic survival of cells transiently transfected with the HRP gene versus untransfected cells; format: cell-based; details: for IC50: Homo sapiens, T-24, 24 h; for factor: ratio of IC50 for transfected and untransfected cells
Protocol: (§1) Human bladder carcinoma T24 cells, MCF-7 mammary carcinoma cells (both from European Collection of Cell Cultures, Salisbury, UK), FaDu, nasopharyngeal squamous carcinoma cells (American Type Culture Collection, Manassas, Va.) were maintained in Dulbecco's modified Eagle's medium (DMEM) supplemented with 10% foetal calf serum, 2 mM L-glutamine, 100 U/ml penicillin, 100 µg/ml streptomycin, and incubated in a humidified incubator at 37° C. and 5% CO2/air. Only cells which tested negative for mycoplasma infection were utilised.
(§2) Following drug exposure, cells were rinsed with PBS and grown for 8 to 20 days in complete DMEM supplemented with feeder cells (V79 cells exposed to 250 Gy ^60Co irradiation). After fixation and staining with 2.5% crystal violet w/v in methylated spirit, colonies of >50 cells were scored. Surviving fractions were evaluated relative to HBSS-treated controls.

[3] = Distribution of 5-fluoro-indole acetic acid in vivo in mice with the Carcinoma NT tumour; details: 50 mg/kg i.p., female CBA mice bearing Carcinoma NT tumour, up to 2 hours
Protocol: 5-fluoro-indole acetic acid (5 mg/mL) in 2% v/v ethanol/water was adjusted to pH 7.4 with NaOH and injected i.p. at a dose of 50 mg/kg into female CBA mice bearing the Carcinoma NT tumour (see example 8 for details). The mice were sacrificed up to 2 hours after drug administration and the blood and tissues removed immediately and placed on ice. The whole blood was spun down and the plasma stored at −20° C. Tissue sample were weighed and homogenised in 4 to 9 volumes of ice-cold water. The homogenised tissue was then stored at −20° C.
For HPLC analysis, plasma (50 μL) was mixed with IAA internal standard (130 μM, 25 μL) and protein precipitated with acetonitrile (50 μL). The samples were spun down and the supernatant injected directly for HPLC analysis. For tissue levels, samples (250 μL) was mixed with IAA internal standard (130 μM, 25 μL) and precipitated with acetonitrile (250 μL) for direct injection for HPLC analysis. HPLC analysis was carried out with a Hypersil SODS 125×4.6 mm column eluting with A; 75% acetonitrile and B: 20 mM ammonium acetate (pH 5.1) with a gradient of 15-70% A in 10 minutes at 2 mL/minute. Detection was at 290 nm using a Waters 486 variable wavelength detector.

[4] = system: FaDu, nasopharyngeal squamous carcinoma cells; assay: GDEPT: clonogenic survival of cells transiently transfected with the HRP gene versus untransfected cells; format: cell-based, human; details: for IC50: Homo sapiens; for factor: ratio of IC50 for transfected and untransfected cells
Protocol: as §1, §2

[5] = system: MCF-7 mammary carcinoma cells; assay: as above; format: cell-based, human; details: for IC50: Homo sapiens; for factor: MCF-7, ratio of IC50 for transfected and untransfected cells
Protocol: as §1, §2

[6] = 50 μM IAA derivative together with HRP (1.2 μg/mL)
[7] = 100 μM IAA derivative together with HRP (1.2 μg/mL), 0^a = all cells killed, 1^b = no detectable effect

O=C(O)Cc1c[nH]c2cc(Br)ccc12 [SR069, 6-Bromoindole-3-acetic acid]
melting point: 174 to 176 °C
surviving fraction [1, 6]: 0.0031 ± 0.0023
surviving fraction [1, 7]: 0^a

O=C(O)Cc1c[nH]c2ccc(-c3ccc(Cl)cc3)cc12 [SR150, 5-(4-Chlorophenyl)indole-3-acetic acid]
melting point: 166 to 168 °C

Cc1cc(F)c2[nH]cc(CC(=O)O)c2c1 [SR109, 7-Fluoro-5-methylindole-3-acetic acid]
melting point: 138 to 140 °C

O=C(O)Cc1c[nH]c2c(F)cccc12 [SR022, 7-Fluoroindole-3-acetic acid]
melting point: 159 to 161 °C
surviving fraction [1, 6]: 0.053 ± 0.022
surviving fraction [1, 7]: 0^a

O=C(O)Cc1c[nH]c2ccc(OC(F)(F)F)cc12 [SR073, 5-Trifluoromethoxyindole-3-acetic acid]
melting point: 120 to 122 °C

O=C(O)Cc1c[nH]c2cc(Cl)cc(Cl)c12 [SR085, 4,6-Dichloroindole-3-acetic acid]
melting point: 223 to 224 °C

Cc1ccc(F)c2[nH]cc(CC(=O)O)c12 [SR148, 7-Fluoro-4-methylindole-3-acetic acid]
melting point: 162 to 164 °C (dec.)

Cc1[nH]c2ccc(F)cc2c1CC(=O)O [SR036, 5-Fluoro-2-methylindole-3-acetic acid]
melting point: 182 to 184 °C

O=C(O)Cc1c[nH]c2ccc(F)cc12 [Compound 5-fluoro, 5-fluoro-indole-3-acetic acid]
IC50 ([2]; T24 (anoxic), transfected cells, 24 hours exposure in anaerobic cabinet, read-out: IC50 HRP+): 30 µM
IC50 ([2]; T24 (anoxic), untransfected cells, 24 hours exposure in anaerobic cabinet, read-out: IC50 HRP−): 2300 µM
IC50 ([2]; T24 (normoxic), transfected cells, 24 hours exposure, estimated from survival curves, read-out: IC50 HRP+): 40 µM
IC50 ([2]; T24 (normoxic), untransfected cells, 24 hours exposure, read-out: IC50 HRP−): 3500 µM
factor ([2]; T24 (anoxic)): 77
factor ([2]; T24 (normoxic)): 88
concentration in the tumour [3]: sufficient concentrations to achieve a cytotoxic effect are attained in the tumour
levels in the kidney [3]: High levels in the kidney
IC50 ([4]; transfected cells, 24 hours exposure, read-out: IC50 HRP+): 20 µM
IC50 ([4]; untransfected cells, 24 hours exposure, read-out: IC50 HRP−): 1200 µM
factor [4]: 60
IC50 ([5]; MCF7, MCF-7, transfected cells, 24 hours exposure, read-out: IC50 HRP+): 250 µM
IC50 ([5]; MCF7, MCF-7, untransfected cells, 24 hours exposure, read-out: IC50 HRP−): 400 µM
factor [5]: 1.6
surviving fraction [1, 6]: 0.0045 ± 0.003
surviving fraction [1, 7]: 0^a

O=C(O)Cc1c[nH]c2cc(Cl)ccc12 [SR058, 6-Chloroindole-3-acetic acid]
melting point: 183 to 185 °C
surviving fraction [1, 6]: 0.00085 (n = 1)
surviving fraction [1, 7]: 0^a

O=C(O)Cc1c[nH]c2cc(F)ccc12 [SR043, 6-Fluoroindole-3-acetic acid]
melting point: 161 to 163 °C
surviving fraction [1, 7]: 0.00995 (n = 2)

O=C(O)Cc1c[nH]c2ccc(Cl)cc12 [SR024, 5-Chloroindole-3-acetic acid]
melting point: 160 to 161 °C
surviving fraction [1, 7]: 0.0027 ± 0.0022

O=C(O)Cc1c[nH]c2c(F)cc(Cl)cc12 [SR091, 5-Chloro-7-fluoroindole-3-acetic acid]
melting point: 164 to 166 °C

O=C(O)Cc1c[nH]c2ccc(Br)cc12 [Compound 5-bromo, 5-bromo-indole-3-acetic acid]
IC50 ([2]; read-out: IC50 HRP+, T24 (anoxic), transfected cells, 24 hours exposure in anaerobic cabinet): 7 µM
IC50 ([2]; read-out: IC50 HRP+, T24 (normoxic), transfected cells, 24 hours exposure, estimated from survival curves): 6 µM
IC50 ([2]; read-out: IC50 HRP−, T24 (anoxic), untransfected cells, 24 hours exposure in anaerobic cabinet): 1000 µM
IC50 ([2]; read-out: IC50 HRP−, T24 (normoxic), untransfected cells, 24 hours exposure): 600 µM
factor ([2]; T24 (anoxic)): 43
factor ([2]; T24 (normoxic)): 100
IC50 ([4]; 24 h, read-out: IC50 HRP+): 7 µM
IC50 ([4]; 24 h, read-out: IC50 HRP−): 600 µM
factor [4]: 86
IC50 ([5]; MCF7, 24 h, read-out: IC50 HRP+): 7 µM
IC50 ([5]; MCF7, 24 h, read-out: IC50 HRP−): 500 µM
factor [5]: 71
surviving fraction [1, 7]: 0.00004 ± 0.00003

Cn1cc(CC(=O)O)c2ccc(Cl)cc21 [SR139, 6-Chloro-1-methylindole-3-acetic acid]
melting point: 130 to 132 °C (dec.)

O=C(O)Cc1c[nH]c2c(Cl)cccc12 [SR052, 7-Chloroindole-3-acetic acid]
melting point: 164 to 165 °C
surviving fraction [1, 7]: 0.000042 (n = 1)

O=C(O)Cc1c[nH]c2cccc(F)c12 [SR039, 4-Fluoroindole-3-acetic acid]
melting point: 129 to 131 °C
surviving fraction [1, 7]: 0.000085 ± 0.00007
